Where “and” joins values, the source holds several entries; their conditions need not be identical. Equal values may be shown once.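 Protocol summary: plate cells (96-well), add compound at 5 concentrations, incubate 48 h, interpolate endpoints linearly. GI50 = concentration required for 50% inhibition of growth. TGI is the concentration that stops growth completely.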
Columns and labels:
Experiment in all cases: NCI-60 cell line screen, 48 h
[1] = test system: A498 renal
[2] = test system: HCT-15 colon
[3] = test system: HL-60(TB) leukemia
[4] = test system: RPMI-8226 leukemia
[5] = test system: SF-295 CNS
[6] = test system: SF-539 CNS
[7] = test system: SNB-75 CNS
[8] = test system: DU-145 prostate
[9] = test system: NCI/ADR-RES ovarian
[10] = test system: T-47D breast

| SMILES | TGI [1] [µM] | TGI [2] [µM] | TGI [3] [µM] | TGI [4] | TGI [5] [µM] | TGI [6] | TGI [7] | GI50 [1] [µM] | GI50 [8] [µM] | TGI [8] [µM] | GI50 [2] [µM] | GI50 [3] | GI50 [9] [µM] | TGI [9] [µM] | GI50 [4] [µM] | GI50 [5] [µM] | GI50 [6] [µM] | GI50 [10] [µM] | TGI [10] [µM] | GI50 [7] [µM] |
| --- | --- | --- | --- | --- | --- | --- | --- | --- | --- | --- | --- | --- | --- | --- | --- | --- | --- | --- | --- | --- |
| O=C(/C=C/c1ccc(OCC(=O)N2CCN(c3ccccc3)CC2)cc1)c1ccccc1 | > 100 | > 100 | 30.8 | > 27.2 µM | > 100 | 46.8 µM | > 78.9 µM | – | – | – | – | – | – | – | – | – | – | – | – | – |
| COc1ccc(-c2ccc(/C=N/n3c(COc4ccc(Cl)c(C)c4)nn(CN4CCOCC4)c3=S)o2)c([N+](=O)[O-])c1 | 25.7 | > 100 | 50.9 | 34.9 µM | 46.6 | 53.9 µM | – | 12.4 | 38 | > 100 | 30.7 | 24.1 µM | 27.6 | > 100 | 12.5 | 18.6 | 22 | 44.1 | > 100 | – |
| COC(=O)CCSC(=O)Nc1ccccc1Cl | > 100 | > 100 | > 100 | > 100 µM | > 100 | > 100 µM | > 100 µM | – | – | – | – | – | – | – | – | – | – | – | – | – |
| O=[N+]([O-])c1cccc(C2=NOC3CCCC23)c1 (stereo not given) | > 100 | > 100 | > 100 | > 100 µM | > 100 | > 100 µM | > 100 µM | – | – | – | – | – | – | – | – | – | – | – | – | – |
| O=C(CO[N+](=O)[O-])OCC(=O)c1ccccc1 | – | > 100 | > 100 | > 100 µM | > 100 | > 100 µM | > 100 µM | – | – | – | – | – | – | – | – | – | – | – | – | – |
| COc1cccc(OC)c1/C=N\N1C(=O)c2ccccc2C1=O | > 100 | > 100 | 79.8 | > 100 µM | > 100 | 52.4 µM | 98.1 µM | – | – | – | – | – | – | – | – | – | – | – | – | – |
| O=C(/C=C/N1CCN(c2cccc(Cl)c2)CC1)c1ccc(Cl)cc1 | 48.1 | > 100 | – | 50.7 µM | 54.2 | 47.7 µM | – | 21.8 | 38.4 | > 100 | 31 | – | 33.2 | > 100 | 18.3 | 18.6 | 22.8 | 51.2 | > 100 | – |
| CCOC(=O)C1C(=O)C(=O)N2CCc3c([nH]c4ccccc34)C12 (stereo not given) | > 100 | > 100 | > 100 | > 100 µM | > 100 | > 100 µM | – | – | – | – | – | – | – | – | – | – | – | – | – | – |
| NC1=NN(c2ccccc2)C(=O)C1/C(=N\NC(=O)c1cc2ccccc2cc1O)C(=O)Nc1ccc(Cl)cc1 (stereo not given) | 98.1 | > 100 | 14.7 | 96.1 µM | > 100 | 69.3 µM | 54.8 µM | – | – | – | – | – | – | – | – | – | – | – | – | – |
| CC1=CC(=O)N2[C@H](OC[C@@H]2C(C)C)O1 | – | > 100 | > 100 | > 100 µM | > 100 | > 100 µM | > 100 µM | – | – | – | – | – | – | – | – | – | – | – | – | – |
| CC(C)=NO.CC(C)=NO.CC(C)=NO.CC(C)=NO.[Ti] | – | > 100 | > 100 | > 100 µM | > 100 | > 100 µM | > 100 µM | – | – | – | > 100 | > 100 µM | – | – | > 100 | > 100 | > 100 | – | – | > 100 |
| CCNC(=O)O/N=C1/C=C2CC[C@@H]3C(CC[C@@]4(C)C3CC[C@@H]4OC(=O)NCC)[C@@]2(C)CC1 (stereo not given in full) | > 100 | 11.2 | – | 7.02 µM | 7.03 | > 100 µM | 5.94 µM | – | – | – | – | – | – | – | – | – | – | – | – | – |
| O=[N+]([O-])C1(CO)COC(CCc2ccccc2)OC1 (stereo not given) | – | > 100 | > 100 | – | > 100 | > 100 µM | > 100 µM | – | – | – | – | – | – | – | – | – | – | – | – | – |
| CCOC(=O)NC/C=C/CO | > 100 | > 100 | > 100 | > 100 µM | – | > 100 µM | > 100 µM | – | – | – | – | – | – | – | – | – | – | – | – | – |
| C=CCCC1(CCP(=O)(c2ccccc2)c2ccccc2)OCCO1 | – | > 100 | > 100 | > 100 µM | > 100 | > 100 µM | > 100 µM | – | – | > 100 | – | – | – | > 100 | – | – | – | – | – | – |
| COC(=O)N/N=C(\c1nc2ccc(Cl)cc2[nH]c1=O)C(O)c1ccc([N+](=O)[O-])cc1 (stereo not given) | – | > 100 | > 100 | > 100 µM | > 100 | > 100 µM | > 100 µM | – | – | – | – | – | – | – | – | – | – | – | – | – |
| O=NNc1nc(-c2ccccn2)nc2ccccc12 | > 100 | 14.7 | > 100 | – | > 100 | > 100 µM | > 100 µM | – | – | > 100 | – | – | – | 63.5 | – | – | – | – | > 100 | – |
| Cc1c2cc[n+](C)cc2c(C)c2c1[nH]c1ccc(Oc3ccccc3)cc12 | > 100 | > 100 | – | 23.8 µM and 16.1 µM | – | 20.2 µM and 21 µM | 4.36 µM and 5.27 µM | – | – | – | – | 2.18 µM and 4.06 µM | – | – | – | – | – | – | – | 0.549 |
| O=C(Nc1ccccc1)Oc1ccccc1C1CCCCC1 | > 100 | 40.9 | 35.2 | 52 µM | 51.2 | > 100 µM | 39.9 µM | – | – | – | – | – | – | – | – | – | – | – | – | – |
| CCCCc1c2c(nc3c1CC/C(=C\c1ccccc1)C3=O)CCCC2 | – | 12.3 | 10.3 | 7.04 µM | 16 | 4.71 µM | 23 µM | – | – | – | – | – | – | – | – | – | – | – | – | – |
| O=C1COc2cc3c(cc2N1)SCC(=O)N3 | – | – | > 100 | > 100 µM | > 100 | > 100 µM | > 100 µM | – | – | – | – | – | – | – | – | – | – | – | – | – |
| COc1cccc2c(Nc3ccc(C(=O)NCCN4CCNCC4)cc3)cc(-c3ccccc3)nc12 | > 100 | > 100 | – | 44.3 µM | > 100 | 57 µM | > 100 µM | > 100 | 71 | > 100 | 57.8 | – | > 100 | > 100 | 18 | 33.1 | 22.9 | 29.4 | > 100 | 33.2 |
| CN(C)c1ccc(/C=C2\Cc3ccccc3C2=O)cc1Br | > 100 | > 100 | – | 84.3 µM | > 100 | – | > 100 µM | – | – | – | – | – | – | – | – | – | – | – | – | – |
| NC(=O)NC(=O)C1CCC(=O)N1S(=O)(=O)c1ccc(Cl)cc1 (stereo not given) | – | > 100 | > 100 | > 100 µM | > 100 | > 100 µM | > 100 µM | – | – | – | – | – | – | – | – | – | – | – | – | – |
| Cc1cc(C2(c3cc(C)c(O)c4ncccc34)OC(=O)c3ccccc32)c2cccnc2c1O | > 100 | – | – | > 100 µM | 21.3 | 4.69 µM and 11.7 µM | 6.82 µM and 8.1 µM | 12.3 | 0.242 | > 100 | – | – | 0.0138 | 17.1 | – | 0.012 | 0.02 | – | – | – |

Source: PubChem BioAssay (NCI)
